In ChEMBL document CHEMBL3885881, “DrugMatrix”:

Species on record: Rattus norvegicus
Assay: DrugMatrix - Regimen: Daily Repeat
Assay type: toxicity, organism-based, Sprague-Dawley
Set-up: regimen Daily Repeat, gender Male, age 6-8 weeks
Conditions: in vivo, po, 0 mg/kg, route oral GAVAGE, dose level Control, vehicle 100 % WATER
[1] = 72 h, tissue Plasma, time 3 day
[2] = 120 h, tissue Blood, time 5 day
[3] = 120 h, tissue Plasma, time 5 day

## CADMIUM ACETATE
72 h, tissue Blood, time 3 day
  ABSOLUTE BASOPHIL: 0 CELLS/uL
  ABSOLUTE EOSINOPHIL: 0 CELLS/uL
  ABSOLUTE LYMPHOCYTE: 10386.33 CELLS/uL
  ABSOLUTE MONOCYTE: 88.5 CELLS/uL
  ABSOLUTE SEGMENTED NEUTROPHIL: 1008.5 CELLS/uL
  BASOPHIL: 0%
  EOSINOPHIL: 0%
  ERYTHROCYTE COUNT: 5.16 x10E6/uL
  HEMATOCRIT: 32.43%
  HEMOGLOBIN: 12.98 G/DL
  LEUKOCYTE COUNT: 11.48 x10E3/uL
  LYMPHOCYTE: 92.33%
  MEAN CORPUSCULAR HEMOGLOBIN: 25.23 pg
  MEAN CORPUSCULAR HEMOGLOBIN CONCENTRATION: 40.08 G/DL
  MEAN CORPUSCULAR VOLUME: 62.95 fL
  MONOCYTE: 0.67%
  NEUTROPHIL: 7%
  NUCLEATED RED BLOOD CELLS: 0 /100WBC
  PLATELET COUNT: 1016.67 x10E3/uL
[1]
  ALANINE AMINOTRANSFERASE: 62.17 u/L
  ALBUMIN: 3.95 G/DL
  ALKALINE PHOSPHATASE: 363.5 u/L
  ASPARTATE AMINOTRANSFERASE: 118 u/L
  BLOOD UREA NITROGEN: 14.5 mg/dL
  CARBON DIOXIDE: 22.83 mmol/L
  CHOLESTEROL: 66 mg/dL
  CREATINE PHOSPHOKINASE: 1308.83 u/L
  CREATININE: 0.22 mg/dL
  GLUCOSE: 187.5 mg/dL
  LACTATE DEHYDROGENASE: 380.17 u/L
  LIPASE: 16.17 u/L
  PHOSPHORUS: 14.27 mg/dL
  POTASSIUM: 6.8 MEQ/L
  TOTAL BILIRUBIN: 0.2 mg/dL
  TOTAL PROTEIN: 5.68 G/DL
  URIC ACID: 2.87 mg/dL
[2]
  ABSOLUTE BASOPHIL: 0 CELLS/uL
  ABSOLUTE EOSINOPHIL: 80 CELLS/uL
  ABSOLUTE LYMPHOCYTE: 13301.33 CELLS/uL
  ABSOLUTE MONOCYTE: 180.83 CELLS/uL
  ABSOLUTE SEGMENTED NEUTROPHIL: 1187.83 CELLS/uL
  BASOPHIL: 0%
  EOSINOPHIL: 0.5%
  ERYTHROCYTE COUNT: 5.54 x10E6/uL
  HEMATOCRIT: 35.65%
  HEMOGLOBIN: 14.22 G/DL
  LEUKOCYTE COUNT: 14.75 x10E3/uL
  LYMPHOCYTE: 90.67%
  MEAN CORPUSCULAR HEMOGLOBIN: 25.65 pg
  MEAN CORPUSCULAR HEMOGLOBIN CONCENTRATION: 39.88 G/DL
  MONOCYTE: 1%
  NEUTROPHIL: 7.83%
  NUCLEATED RED BLOOD CELLS: 0.17 /100WBC
  PLATELET COUNT: 1285.33 x10E3/uL
[3]
  ALANINE AMINOTRANSFERASE: 51.67 u/L
  ALKALINE PHOSPHATASE: 391.5 u/L
  ASPARTATE AMINOTRANSFERASE: 99.5 u/L
  BLOOD UREA NITROGEN: 15.5 mg/dL
  CARBON DIOXIDE: 28.33 mmol/L
  CHOLESTEROL: 67.83 mg/dL
  CREATINE PHOSPHOKINASE: 771.33 u/L
  CREATININE: 0.23 mg/dL
  GLUCOSE: 156.5 mg/dL
  LACTATE DEHYDROGENASE: 544.33 u/L
  LIPASE: 10.17 u/L
  PHOSPHORUS: 12.03 mg/dL
  POTASSIUM: 6.81 MEQ/L
  TOTAL BILIRUBIN: 0.22 mg/dL
  TOTAL PROTEIN: 6 G/DL
  URIC ACID: 2.18 mg/dL
